# Legend:
# [1] = Inhibition of IL1aplha-induced PGE2 production in bovine articular chondrocytes at 5 uM incubated for 48 hrs by ELISA relative to control; format: functional; conditions: Bos taurus
# [2] = target: Cannabinoid receptor 2 (Homo sapiens) (UniProt P34972); test: Agonist activity at human CB2 receptor assessed as reduction in […] level at 20 uM incubated for 10 mins relative to control
# [3] = target: Cannabinoid receptor 2 (Homo sapiens) (UniProt P34972); test: Agonist activity at human CB2 receptor assessed as inhibition of capsaicin-induced depolarization at 20 uM incubated for 10 mins relative to control
# Cavia porcellus [4] = species: Cavia porcellus; test: Agonist activity at Dunkin Hartley guinea pig CB2 receptor assessed as reduction in […] level at 20 uM incubated for 10 mins relative to control
# Cavia porcellus [5] = species: Cavia porcellus; test: Agonist activity at Dunkin Hartley guinea pig CB2 receptor assessed as inhibition of capsaicin-induced depolarization at 20 uM incubated for 10 mins relative to control
# Mus musculus [6] = test: Reduction in LTB4 production in athymic CD-1 nude mouse xenografted with human U87 cells at 0.5 mg/mouse/day administered peritumorally for 5 days by RP-HPLC analysis relative to control; format: functional; design: scale not given: the % may be the effect or the level left
# Mus musculus [7] = test: Reduction in anandamide production in athymic CD-1 nude mouse xenografted with human U87 cells at 0.5 mg/mouse/day administered peritumorally for 5 days by RP-HPLC with fluorimetric detection method relative to control; format: functional; design: scale not given: the % may be the effect or the level left
# J774 = test: Inhibition of LPS-induced PGE2 production in mouse J774 cells at 10 uM incubated for 24 hrs by enzyme immunoassay relative to control; format: functional; conditions: J774, 24 h
# Oryctolagus cuniculus = test: Reduction in intraocular pressure in rabbit applied topically relative to control; format: functional; design: scale not given: the % may be the effect or the level left
# Sequence of Cannabinoid receptor 2 (Homo sapiens) (P34972 whole entry): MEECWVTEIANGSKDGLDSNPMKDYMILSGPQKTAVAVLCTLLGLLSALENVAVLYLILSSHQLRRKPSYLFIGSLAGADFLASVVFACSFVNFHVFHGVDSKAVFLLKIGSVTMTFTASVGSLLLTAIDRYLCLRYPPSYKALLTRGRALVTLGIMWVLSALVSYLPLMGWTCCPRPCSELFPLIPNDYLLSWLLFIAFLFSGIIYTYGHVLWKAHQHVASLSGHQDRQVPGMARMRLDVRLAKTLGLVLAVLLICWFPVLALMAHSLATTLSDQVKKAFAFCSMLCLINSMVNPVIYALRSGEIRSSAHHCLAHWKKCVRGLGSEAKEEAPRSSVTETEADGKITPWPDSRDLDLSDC
smiles,measurement,setting,value
CCCCCCC(C)(C)c1cc(O)c2c(c1)OC(C)(C)[C@@H]1CCC(CO)=C[C@@H]21,inhibition at 5 µM,[1],> 50%
O=C(NCc1ccncc1)c1cnc(Nc2cccc(Cl)c2)nc1C(F)(F)F,Imax,[2],40%
same,Imax,[3],40%
same,Imax,Cavia porcellus [4],40%
same,Imax,Cavia porcellus [5],40%
C=C(C)[C@@H]1CCC(C)=C[C@H]1c1c(O)cc(CCCCC)cc1O [CANNABIDIOL],Activity,Mus musculus [6],25%
same,Activity,Mus musculus [7],30%
CCCCCc1cc(O)c2c(c1)OC(C)(C)[C@@H]1CCC(C)=C[C@@H]21 [DRONABINOL],inhibition at 10 µM,J774,60%
same,Activity,Oryctolagus cuniculus,20 - 25%
Cc1c(C(=O)c2cccc3ccccc23)c2cccc3c2n1[C@H](CN1CCOCC1)CO3 [WIN-552122],inhibition at 5 µM,[1],> 50%

# — ChEMBL document CHEMBL4387731, “Eicosanoid mediation of cannabinoid actions” (2019)
